Reference: US20160137639A1, “TRIAZOLE-ISOXAZOLE COMPOUND AND MEDICAL USE THEREOF” (JAPAN TOBACCO INC., priority 2012, published 2016)
Read-outs that look alike come from different tables or passages of the source.

Assays:
[1] = biological target: T1, human RORγ (Homo sapiens, UniProt P51449); experiment: Luciferase reporter gene assay of inhibitory effect against RORγ transcriptional activity (GAL4-hRORγ plasmid in CHO cells); format: cell-based
T1 construct: human, NM_005060.3 and from Ser253 to Lys518; expressed in transfected cells; host or cells: CHO cells (transient co-transfection with pG5-Luc reporter)
T1 sequence (P51449 253-518): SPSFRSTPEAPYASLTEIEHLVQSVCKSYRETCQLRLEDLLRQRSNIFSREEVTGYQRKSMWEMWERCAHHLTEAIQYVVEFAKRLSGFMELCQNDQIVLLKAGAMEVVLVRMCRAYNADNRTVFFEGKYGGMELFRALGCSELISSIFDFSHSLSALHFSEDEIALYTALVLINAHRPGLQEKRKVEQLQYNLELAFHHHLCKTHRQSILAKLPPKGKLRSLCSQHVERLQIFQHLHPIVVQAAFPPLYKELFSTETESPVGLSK

[2] = biological target: T2, mouse RORγ (Mus musculus, UniProt P51450); experiment: Luciferase reporter gene assay of inhibitory effect against RORγ transcriptional activity (GAL4-mRORγ plasmid in CHO cells); format: cell-based
T2 construct: mouse, NM_011281.2 and from Ile251 to Lys516; expressed in transfected cells; host or cells: CHO cells (transient co-transfection with pG5-Luc reporter)
T2 sequence (P51450 251-516): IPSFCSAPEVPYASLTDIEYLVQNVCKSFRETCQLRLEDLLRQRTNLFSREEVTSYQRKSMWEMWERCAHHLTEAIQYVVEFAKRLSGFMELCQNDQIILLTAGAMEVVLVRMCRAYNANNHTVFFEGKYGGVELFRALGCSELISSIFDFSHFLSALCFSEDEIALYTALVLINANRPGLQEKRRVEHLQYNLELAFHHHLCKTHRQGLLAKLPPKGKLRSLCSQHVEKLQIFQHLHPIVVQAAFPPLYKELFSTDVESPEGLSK
Summary of the method: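 Readout is intracellular luciferase after 2-day compound exposure (8 concentrations, 0.1% DMSO) in CHO cells expressing GAL4 fused to mouse RORγ LBD residues Ile251–Lys516 plus pG5-Luc reporter. EC50 fitted from %-of-control; points showing resazurin-detected cytotoxicity dropped.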

Compound	EC50 ([1]; read-out: LUC EC50 (μM) hRORg)	EC50 ([2]; read-out: LUC EC50 (μM) mRORg)	EC50 ([1]; read-out: LUC EC50 hRORg)	EC50 ([2]; read-out: LUC EC50 mRORg)
Cc1c(Br)cccc1NC(=O)CCc1nnc(CCC(C)C)n1C1CC1 [Example F-84]	< 3 µM	< 3 µM	–	–
Cc1ccc(NC(=O)C[C@H](CCC(=O)O)c2noc(-c3cc(CCC(C)(C)C)on3)c2C2CC2)c(C)c1 [Example E-32]	< 3 µM	< 3 µM	–	–
CC(C)CCc1nnc(CCC(=O)NCc2ccc(C(F)(F)F)cc2)n1C1CC1 [Example F-129]	> 3 µM	> 3 µM	–	–
COc1ccccc1NC(=O)CCc1nnc(CCC(C)C)n1C1CC1 [Example F-73]	> 3 µM	> 3 µM	–	–
Cc1cccnc1CNC(=O)CCc1nnc(CCC(C)C)n1C1CC1 [Example F-110]	> 3 µM	> 3 µM	–	–
CCn1c(CC(C)C(=O)Nc2cccc3ccccc23)nnc1C1Cc2ccccc2C1 (racemic) [Example F-32]	< 3 µM	< 3 µM	–	–
Cc1ccc(NC(=O)C[C@H](CCC(=O)O)c2noc3c2C(C)CCC3CCC(C)C)c(Cl)c1 (single isomer, unassigned) [Example F-695]	–	–	> 3 µM	< 3 µM
CCCc1ccc(C)c(NC(=O)CCc2nnc(CCC(C)C)n2C2CC2)c1 [Example F-153]	> 3 µM	> 3 µM	–	–
Cc1ccc(NC(=O)CCc2noc(CCC3CCCCC3)c2C2CC2)c(C)c1 [Example F-494]	< 3 µM	< 3 µM	–	–
Cc1ccc(NC(=O)CCc2noc(C(F)(F)c3cc(C(C)(C)C)no3)c2C2CC2)c(Cl)c1 [Example F-740]	–	–	< 3 µM	< 3 µM
Cc1ncc(NC(=O)C[C@H](CCC(=O)O)c2noc([C@H]3C[C@@H](CC(C)(C)C)C3)c2C2CC2)c(C)n1 [Example F-674]	–	–	< 3 µM	< 3 µM
CCn1c(CCC(=O)Nc2cccc(Cl)c2C)nnc1CCC(C)C [Example F-52]	> 3 µM	< 3 µM	–	–
Cc1ccc(NC(=O)CCc2nnc(C(O)CCC(C)(C)C)n2C2CC2)c(C)c1 (racemic) [Example F-367]	> 3 µM	< 3 µM	–	–
Cc1ccc(NC(=O)C[C@H](CCC(=O)O)c2noc(-c3ncc(CC(C)C)s3)c2C2CC2)c(Cl)c1 [Example E-15]	< 3 µM	< 3 µM	–	–
Cc1ccc(NC(=O)C[C@H](CCCO)c2noc([C@H]3C[C@@H](CC(C)(C)C)C3)c2C2CC2)c(C)c1O [Example F-699]	–	–	< 3 µM	< 3 µM
Cc1ccc(NC(=O)CCc2nnc(CCC3CCCCC3)n2C2CCC2)c(C)c1 [Example F-112]	> 3 µM	< 3 µM	–	–
Cc1ccc(NC(=O)CCc2noc(C(O)c3cc(C(C)(C)C)no3)c2C2CC2)c(Cl)c1 (racemic) [Example F-744]	–	–	> 3 µM	< 3 µM
CC(=O)N1C[C@H](C(=O)Nc2ccc(C)cc2C)[C@@H](c2nnc(C3CC(C(C)C)C3)n2C2CC2)C1 (stereo partly shown) [Example F-298]	< 3 µM	< 3 µM	–	–
CNC(=O)CO[C@@H](CC(=O)Nc1ccc(C)cc1C)c1nnc([C@H]2C[C@@H](CC(C)C)C2)n1C1CC1 [Example F-480]	< 3 µM	< 3 µM	–	–
Cc1ccc(NC(=O)CC(CCO)c2nnc(CCCC(C)C)n2C2CC2)c(C)c1 (racemic) [Example F-201]	< 3 µM	< 3 µM	–	–
Cc1c(Cl)cccc1NC(=O)CCc1nnc(CCCC(C)(C)C(=O)N(C)C)n1C1CC1 [Example F-238]	> 3 µM	> 3 µM	–	–
Cc1ccc(NC(=O)[C@H]2CN(C)CC[C@@H]2c2nnc(CCCC(C)(C)C)n2C2CC2)c(C)c1 (racemic) [Example F-394]	< 3 µM	< 3 µM	–	–
Cc1ccc(NC(=O)[C@H]2C(=O)N(C)C[C@@H]2c2nnc(CCCC(C)(C)C)n2C2CC2)c(C)c1 [Example F-302]	< 3 µM	< 3 µM	–	–
Cc1cc(Cl)ccc1NC(=O)C[C@H](CCO)c1nnc(-c2cc(CC(C)(C)C)on2)n1C1CC1 [Example F-608]	–	–	< 3 µM	< 3 µM
COC1(CC(C)C)CC(c2nnc([C@H]3CN(C(C)=O)C[C@@H]3C(=O)Nc3ccc(C)cc3C)n2C2CC2)C1 (single isomer, unassigned) [Example F-483]	< 3 µM	< 3 µM	–	–

Compound	EC50 ([1]; read-out: LUC EC50 (μM) hRORg)	EC50 ([2]; read-out: LUC EC50 (μM) mRORg)	EC50 ([1]; read-out: LUC EC50 hRORg)	EC50 ([2]; read-out: LUC EC50 mRORg)
CCn1c(CCC(=O)Nc2cc(C)cc(C)c2)nnc1CCC1CCCC1 [Example F-49]	> 3 µM	> 3 µM	–	–
Cc1ccc(NC(=O)C[C@H](CC(C)C)c2nnc([C@H]3C[C@@H](CC(C)C)C3)n2C2CC2)c(C)c1 [Example F-590]	–	–	< 3 µM	< 3 µM
Cc1ccc(NC(=O)C[C@@H](c2nnc(CCCC(C)(C)C)n2C2CC2)N(C)C(=O)OCc2ccccc2)c(C)c1 [Example F-352]	> 3 µM	> 3 µM	–	–
Cc1ccc(NC(=O)C[C@H](OCC(F)(F)F)c2nnc([C@H]3C[C@@H](CC(C)C)C3)n2C2CC2)c(C)c1 [Example F-609]	–	–	< 3 µM	< 3 µM
CCN(CC)CC(=O)N1C[C@H](C(=O)Nc2ccc(C)cc2C)[C@@H](c2nnc([C@H]3C[C@@H](CC(C)C)C3)n2C2CC2)C1 [Example F-654]	–	–	> 3 µM	< 3 µM
Cc1ccc(NC(=O)C[C@H](CC#N)c2noc([C@H]3C[C@@H](CC(C)C)C3)c2C2CC2)c(C)c1 [Example F-638]	–	–	< 3 µM	< 3 µM
CC(=O)N1C[C@H](C(=O)Nc2ccc(C)cc2C)[C@@H](c2nnc(-c3ccc(CC(C)C)cc3)n2C2CC2)C1 [Example F-406]	< 3 µM	< 3 µM	–	–
CC(=O)NCCC(CC(=O)Nc1ccc(C)cc1C)c1nnc(CCCC(C)C)n1C1CC1 (racemic) [Example F-275]	> 3 µM	> 3 µM	–	–
Cc1cc(F)ccc1NC(=O)[C@H]1CC(F)(F)C[C@@H]1c1nnc(-c2cc(CC(C)C)on2)n1C1CC1 [Example F-592]	–	–	< 3 µM	< 3 µM
CCC(C)CCc1nnc(CCC(=O)Nc2ccc(C)cc2C)n1C1CC1 (racemic) [Example F-236]	> 3 µM	< 3 µM	–	–
Cc1ccc(NC(=O)[C@H]2CN(C)C[C@@H]2c2nnc(-c3cc(CC(C)C)on3)n2C2CC2)c(C)c1 [Example F-618]	–	–	< 3 µM	< 3 µM
Cc1c(Cl)cccc1NC(=O)CC(CO)c1nnc(CCC(C)C)n1C1CC1 (racemic) [Example F-167]	< 3 µM	< 3 µM	–	–
Cc1ccc(NC(=O)C[C@H](CCC(=O)O)c2noc(-c3noc(CC(C)C)c3C)c2C2CC2)c(Cl)c1 [Example E-29]	< 3 µM	< 3 µM	–	–
Cc1ccc(NC(=O)C[C@H](CC(=O)O)c2noc(-c3cc(C(F)(F)C(C)(C)C)on3)c2C2CC2)c(Cl)c1 [Example E-53, Sodium (R)-4-(2-chloro-4-methyl-phenylcarbamoyl)-3-[4′-cyclopropyl-5-(1,1-difluoro-2,2-dimethylpropyl)-[3,5′]biisoxazolyl-3′-yl]-butyrate]	< 3 µM	< 3 µM	–	–
CC(=O)N1C[C@H](C(=O)Nc2ccc(Cl)cc2C)[C@@H](c2nnc(C3CC4(CCC(F)(F)CC4)C3)n2C2CC2)C1 [Example F-610]	–	–	< 3 µM	< 3 µM
CC(C)(C)C[C@H]1C[C@@H](c2onc([C@@H](CCC(=O)O)CC(=O)NS(=O)(=O)C3CC3)c2C2CC2)C1 [Example F-722]	–	–	> 3 µM	> 3 µM
Cc1c(Cl)cccc1NC(=O)CCc1nnc(CC[C@H]2CC[C@H](C(=O)N(C)C)CC2)n1C1CC1 [Example F-258]	> 3 µM	> 3 µM	–	–
Cc1cc(Cl)ccc1NC(=O)C[C@H](CC(C)C)c1nnc(-c2cc(CC(C)(C)C)on2)n1C1CC1 [Example F-626]	–	–	< 3 µM	< 3 µM
CC(C)(C)C[C@H]1C[C@@H](c2onc([C@@H](CCC(=O)O)CC(=O)NS(=O)(=O)c3ccccc3)c2C2CC2)C1 [Example F-723]	–	–	> 3 µM	> 3 µM
COC1(CC(C)C)CC(c2nnc([C@H]3CN(C(C)=O)C[C@@H]3C(=O)Nc3ccc(C)cc3C)n2C2CC2)C1 (single isomer, unassigned) [Example F-482]	< 3 µM	< 3 µM	–	–
CC(=O)N1C[C@H](C(=O)Nc2ccc(C)cc2C)[C@@H](c2nnc(CCC3CCCCC3)n2C2CC2)C1 [Example F-374]	< 3 µM	< 3 µM	–	–
CCCc1ccccc1NC(=O)CCc1nnc(CCC(C)C)n1C1CC1 [Example F-77]	> 3 µM	> 3 µM	–	–
C=CCC(CC(=O)Nc1ccc(C)cc1C)c1nnc([C@H]2C[C@@H](CC(C)C)C2)n1C1CC1 (mixture of isomers) [Example F-509]	–	–	< 3 µM	< 3 µM
CCC[C@@H](CC(=O)Nc1ccc(C)cc1C)c1nnc(CCCC(C)(C)C)n1C1CC1 [Example F-528]	–	–	< 3 µM	< 3 µM
COc1cc(C)c(C)cc1CNC(=O)CCc1nnc(CCC(C)C)n1C1CC1 [Example F-205]	> 3 µM	> 3 µM	–	–
